Source: article PMC7044277 (Nature Communications, 2020)

Assays:
[1] = target: DRD3 (Homo sapiens, UniProt P35462); assay: Gαi/o-mediated cAMP inhibition (GloSensor); format: cell-based; conditions: DRD3, cAMP inhibition
[2] = target: T1, DRD2 F1103.28L (Homo sapiens, UniProt P14416, F110L); assay: β-arrestin2 recruitment (Tango), mutant; format: cell-based
T1 construct: expressed in transfected cells; host or cells: HEK293T (ATCC CRL-11268)

[3] = target: T2, DRD4 (D4.4 variant) wild-type (Homo sapiens, UniProt P21917); assay: Radioligand competition binding, [3H]-N-methylspiperone; conditions: DRD4; [3H]-methylspiperone (0.8-1.0 nM); read-out: Ki
T2 sequence (P21917 1-419): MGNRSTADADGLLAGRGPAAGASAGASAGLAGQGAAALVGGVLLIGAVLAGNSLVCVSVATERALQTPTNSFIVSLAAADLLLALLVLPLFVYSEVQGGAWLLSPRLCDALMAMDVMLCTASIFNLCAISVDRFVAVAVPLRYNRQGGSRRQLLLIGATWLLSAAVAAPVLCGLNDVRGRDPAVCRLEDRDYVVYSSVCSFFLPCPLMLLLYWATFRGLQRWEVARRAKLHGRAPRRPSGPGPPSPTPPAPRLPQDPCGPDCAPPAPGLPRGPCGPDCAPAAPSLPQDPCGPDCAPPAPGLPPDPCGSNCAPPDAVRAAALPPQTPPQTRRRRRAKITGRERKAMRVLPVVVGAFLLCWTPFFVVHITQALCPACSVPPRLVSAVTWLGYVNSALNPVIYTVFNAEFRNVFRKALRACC

[4] = read-out: Emax relative to quinpirole response

T1 sequence (P14416 whole entry F110L): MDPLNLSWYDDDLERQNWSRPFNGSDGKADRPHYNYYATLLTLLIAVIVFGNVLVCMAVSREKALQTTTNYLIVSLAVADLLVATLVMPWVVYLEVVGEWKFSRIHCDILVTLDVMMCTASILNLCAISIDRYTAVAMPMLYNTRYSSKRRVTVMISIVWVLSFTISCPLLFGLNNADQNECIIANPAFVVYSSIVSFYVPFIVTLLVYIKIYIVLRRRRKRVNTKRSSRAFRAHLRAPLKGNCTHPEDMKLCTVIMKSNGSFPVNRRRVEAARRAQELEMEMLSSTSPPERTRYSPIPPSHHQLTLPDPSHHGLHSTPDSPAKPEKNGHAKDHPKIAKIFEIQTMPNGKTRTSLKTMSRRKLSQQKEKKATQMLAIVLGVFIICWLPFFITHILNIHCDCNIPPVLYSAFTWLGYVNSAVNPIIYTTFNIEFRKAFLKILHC
Chain of DRD3 (P35462 whole entry): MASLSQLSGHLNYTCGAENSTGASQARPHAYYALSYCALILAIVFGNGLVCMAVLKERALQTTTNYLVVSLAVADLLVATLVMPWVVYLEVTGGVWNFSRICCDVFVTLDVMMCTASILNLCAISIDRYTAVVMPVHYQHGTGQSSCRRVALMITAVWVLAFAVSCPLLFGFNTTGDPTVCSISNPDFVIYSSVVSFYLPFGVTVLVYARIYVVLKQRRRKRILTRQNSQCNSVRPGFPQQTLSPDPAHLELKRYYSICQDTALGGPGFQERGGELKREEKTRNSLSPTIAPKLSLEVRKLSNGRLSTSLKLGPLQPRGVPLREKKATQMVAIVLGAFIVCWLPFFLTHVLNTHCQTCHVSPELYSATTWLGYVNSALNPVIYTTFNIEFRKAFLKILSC

CCOc1cccc2cc(C(C)NCC3(O)CCCCC3)oc12 (centres unmarked) [O4LE6]
EC50 ([1]; agonist, read-out: EC50 ± SEM): 5.09 ± 0.16 nM
Emax [1, 4]: 62.4%
EC50 [2]: 204 nM
Emax [2, 4]: 4.32%
Ki [3]: > 10000 nM
